Source: patent US20260115249A1, “NEURAL REPAIR COMPOSITION, METHOD OF PREPARATION, AND USE THEREOF” (SHENZHEN JINFENG BIOMEDICAL TECH. CO., LTD., priority 2023, published 2026)

How the values were obtained:
reactive oxygen species = experiment: Oxidative stress level (ROS) in the cerebral cortex of LPS-treated mice; format: in vivo; conditions: cerebral cortex sampled Day 6; oral gavage 0.02 mL/10 g daily Days 1-5; LPS 1 mg/kg intraperitoneally Days 3, 4, 5
Description: (§1) The antidepressant effect of the composition was evaluated through the forced swim test in mice and measurement of oxidative stress levels in the cerebral cortex. Specific procedures were as follows:
(§2) Mice aged 8-9 weeks were selected as test subjects (10 mice per composition group for differential analysis and multiple comparisons; in differential analysis, * denoted p<0.05, ** p<0.01, *** p<0.001). The neural repair compositions prepared in the above examples and comparative examples were administered to mice via oral gavage. A positive control group treated with lipopolysaccharide (LPS) and a blank control group treated with physiological saline were included. From Days 1-5, mice were orally gavaged daily at the same time with 0.02 mL (normalized to body weight)/10 g of the compositions. On Days 3, 4, and 5, LPS (1 mg/kg) was intraperitoneally administered alongside the compositions. The positive control group differed by receiving only LPS (1 mg/kg) on Days 3, 4, and 5, while the blank control group received physiological saline throughout Days 1-5. On Day 6, behavioral tests (immobility time in the forced swim test, in s) and tissue sampling for oxidative stress assessment (reactive oxygen species absorption levels, expressed as absorbance) were conducted. The results are detailed in FIG. *to FIG. 2 and Tables 1-2.

mice = experiment: Forced swim test in LPS-treated mice (improvement of depression); format: in vivo; conditions: forced swim test on Day 6; oral gavage 0.02 mL/10 g daily Days 1-5; LPS 1 mg/kg intraperitoneally Days 3, 4, 5; 10 mice per group
Description: as §1, §2

lipopolysaccharide [LPS]
ROS absorption level (reactive oxygen species): 0.47 ± 0.10 absorbance | Immobility time of mice (mice): 230 ± 26 s
